Reference: PMC3445516 (PLoS ONE, 2012)

Assays:
p38α = p38α (Homo sapiens, UniProt Q16539); design: method as in PMID 14561090; settings: read-out: in vitro IC50 for p38α; cited from earlier work
[1] = design: method as in PMID 14561090; settings: cited from earlier work
[2] = tested on: LPS-stimulated TNFα synthesis; design: method as in PMID 14561090; settings: acute rat model of LPS-stimulated TNFα synthesis; cited from earlier work
FLT3(ITD) = assay: Ambit kinase profiling, competition binding; design: species or system human; settings: compound concentration 10 uM
From the text: (§1) Supplement pone.0044653.s004.xls, sheet "Compound 122" | column: Percent Competition

ABL1(E255K) = biological target: T1, ABL1(E255K) (Homo sapiens, UniProt P00519, E255K); assay: Ambit kinase profiling, competition binding; settings: compound concentration 10 uM, read-out: Percent Competition
T1 construct: purchased Ambit Biosciences (KINOMEscan)
From the text: as §1

AURKA = biological target: T2, AURKA (Homo sapiens, UniProt O14965); assay: Ambit kinase profiling, competition binding; settings: compound concentration 10 uM, read-out: Percent Competition
T2 construct: purchased Ambit Biosciences (KINOMEscan)
From the text: as §1

Chain of p38α (Q16539 whole entry): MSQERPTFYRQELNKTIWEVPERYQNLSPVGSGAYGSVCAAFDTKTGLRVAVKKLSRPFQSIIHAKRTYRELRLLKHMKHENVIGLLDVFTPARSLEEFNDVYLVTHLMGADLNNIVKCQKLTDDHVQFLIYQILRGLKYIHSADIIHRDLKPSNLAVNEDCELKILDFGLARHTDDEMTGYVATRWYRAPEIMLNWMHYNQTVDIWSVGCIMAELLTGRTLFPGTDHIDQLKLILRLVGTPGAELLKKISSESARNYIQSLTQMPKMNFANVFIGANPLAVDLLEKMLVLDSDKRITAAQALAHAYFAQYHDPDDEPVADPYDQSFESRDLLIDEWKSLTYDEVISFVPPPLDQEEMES
T2 sequence (O14965 whole entry): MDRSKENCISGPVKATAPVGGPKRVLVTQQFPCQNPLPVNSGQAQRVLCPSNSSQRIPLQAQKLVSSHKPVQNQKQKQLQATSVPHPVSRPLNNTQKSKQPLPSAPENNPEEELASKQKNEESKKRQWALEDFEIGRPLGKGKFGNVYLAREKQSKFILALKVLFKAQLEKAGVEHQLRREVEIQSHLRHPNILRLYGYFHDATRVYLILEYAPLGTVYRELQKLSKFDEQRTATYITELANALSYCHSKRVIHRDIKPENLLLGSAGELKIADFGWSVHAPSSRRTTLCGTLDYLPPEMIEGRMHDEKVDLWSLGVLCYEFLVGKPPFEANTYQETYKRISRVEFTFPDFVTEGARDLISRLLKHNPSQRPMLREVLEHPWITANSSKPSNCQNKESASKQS
T1 sequence (P00519 whole entry E255K): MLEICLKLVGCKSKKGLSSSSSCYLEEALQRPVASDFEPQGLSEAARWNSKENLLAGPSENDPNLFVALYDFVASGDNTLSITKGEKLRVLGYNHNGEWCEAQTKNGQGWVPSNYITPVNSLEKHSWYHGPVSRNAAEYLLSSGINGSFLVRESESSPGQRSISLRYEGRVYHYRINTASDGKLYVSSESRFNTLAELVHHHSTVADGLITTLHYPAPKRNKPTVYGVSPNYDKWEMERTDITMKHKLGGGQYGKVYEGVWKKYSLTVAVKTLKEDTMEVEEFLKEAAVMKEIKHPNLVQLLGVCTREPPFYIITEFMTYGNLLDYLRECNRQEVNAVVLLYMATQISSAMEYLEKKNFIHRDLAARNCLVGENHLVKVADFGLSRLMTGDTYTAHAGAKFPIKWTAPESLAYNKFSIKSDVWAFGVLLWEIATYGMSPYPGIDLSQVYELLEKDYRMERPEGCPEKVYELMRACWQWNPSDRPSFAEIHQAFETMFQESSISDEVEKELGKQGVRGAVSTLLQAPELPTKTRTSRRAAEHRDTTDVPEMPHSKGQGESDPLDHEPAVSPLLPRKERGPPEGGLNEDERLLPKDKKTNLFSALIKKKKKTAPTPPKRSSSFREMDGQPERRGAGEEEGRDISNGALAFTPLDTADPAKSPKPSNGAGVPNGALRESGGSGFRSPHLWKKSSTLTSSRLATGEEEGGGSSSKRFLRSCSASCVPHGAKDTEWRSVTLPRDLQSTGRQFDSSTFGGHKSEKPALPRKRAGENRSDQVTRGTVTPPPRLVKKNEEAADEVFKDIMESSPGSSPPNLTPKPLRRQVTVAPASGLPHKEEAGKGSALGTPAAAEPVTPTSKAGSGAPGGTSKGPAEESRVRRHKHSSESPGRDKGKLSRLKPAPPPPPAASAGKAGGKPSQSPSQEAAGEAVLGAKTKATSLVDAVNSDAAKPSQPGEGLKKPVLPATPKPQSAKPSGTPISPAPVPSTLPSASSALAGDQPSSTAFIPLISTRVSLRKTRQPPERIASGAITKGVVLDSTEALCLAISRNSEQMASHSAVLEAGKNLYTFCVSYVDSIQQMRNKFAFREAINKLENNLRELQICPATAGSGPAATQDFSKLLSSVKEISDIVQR

Row | SMILES | IC50 (p38α) [nM] | pharmacokinetic (PK) parameters [1] | in vivo efficacy [2] | Percent Competition (FLT3(ITD)) [%] | inhibition at 10 µM (ABL1(E255K)) [%] | inhibition at 10 µM (AURKA) [%]
1 | CC(O)CNc1cc(-c2[nH]c3cccnc3c2-c2ccc(F)cc2)ccn1 (stereo not drawn) [Compound 140] | 1 | favorable pharmacokinetic (PK) parameters | in vivo efficacy has been demonstrated |  |  | 
2 | Fc1ccc(-c2c(-c3ccncc3)[nH]c3nccnc23)cc1 [RO1155697-000-005] |  |  |  | <50 | < 50 | < 50
